Laboratory results taken from US20140113876A1, “BIOMARKERS FOR ASSESSING TREATMENT OF SIALIC ACID DEFICIENCY DISEASES AND CONDITIONS” (ULTRAGENYX PHARMACEUTICAL INC., priority 2012, published 2014).

System: HIBM patients
Assay: Phase 2 clinical trial: change in serum biomarker levels between week 0 and week 24 per dosage group (Human Discovery MAP250+ v2.0 immunoassay)
Assay type: in vivo
Description: Forty-seven (47) HIBM patient serum samples collected at week 24 from phase 2 study were tested using the Human Discovery MAP250+ v2.0 quantitative immunoassay system developed by Myriad RBM. The results were compared to the serum samples of the same 47 HIBM patients collected at week 0 (baseline) which were conducted earlier with the same immunoassay system.
Patients were unblinded and the results were organized into the 3 assigned dosage groups, placebo (n=14), 3 g/day (n=17) and 6 g/day (n=14). The major focus of the analysis was 1) to assess changes (delta, A) in levels of analytes between baseline and week 24 in each dosage group, 2) whether the changes correlate to dosage levels.
Analytes were excluded from analysis if […] of the HIBM patient samples were below least detectable dose (LDD). Within each dosage group, individual values with >5× difference to the mean of the dosage group were considered as outliers and thus removed from analysis.

[1] = placebo, 3 g/day, 6 g/day, week 0 to week 24, FIG. 4

Q: How did the “serum level of LAP TGF-b1, change towards normal level compared to placebo” value (6 g/day dosage group, week 0 to week 24, FIG. 2) turn out when `CC(=O)N[C@H]1[C@H]([C@H](O)[C@H](O)CO)OC(O)(C(=O)O)C[C@@H]1O` (some centres unmarked) [Sialic Acid, 5-N-acetylneuraminic acid] was run?
A: declined at a faster rate

Q: And the “serum level of NCAM, change towards normal level compared to placebo” value (6 g/day dosage group, week 0 to week 24, FIG. 3)?
A: increased at a faster rate

Q: And the “change in the levels of the eleven analytes of Table 14 compared to the placebo group” value (6 g/day group, week 24)?
A: more favorable change

Q: And the “slope of delta from placebo to higher dosage group, analytes with baseline levels higher than normal controls (PAI-1, LGL, myoglobin, ENA-78, TGfb1, M-CSF1, MMP-9, CgA)” value [1]?
A: downward trend

Q: What about the “slope of delta from placebo to higher dosage group, analytes with baseline levels lower than normal controls (NCAM, ErbB3)” value [1] of the same molecule?
A: upward trend
